Measurements from US11472808B2, “Substituted pyrrolo[1,2-c]pyrimidines as hepatitis B antiviral agents” (Enanta Pharmaceuticals, Inc., priority 2019, dated 2022).

These compounds were tested on HBV (assay: HepAD38 anti-HBV assay: reduction of viral product accumulation (virion DNA qPCR, HBsAg/HBeAg ELISA)). Settings: Hepatitis B virus, 120 h; HepAD38 cells; concentration reducing viral product accumulation by 50% relative to no drug controls; harvest five days after compound addition; read-out: HepAD38 EC50.
Type: cell-based
Procedure, shortened: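 EC50 values reflect 50% reduction, relative to untreated controls, in virion DNA (qPCR) or HBsAg/HBeAg (ELISA) from lysates or supernatants. Washed HepAD38 cells without tetracycline were exposed to compound for 5 days. In the 8-day variant, medium and compound were renewed on days 2 and 5.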
In the case of `CC(C)NC(=O)N[C@H]1CC2=C(c3ccn(C(F)F)n3)[C@H](c3ccc(F)cc3Cl)N=C(c3nccs3)N2C1` [Example 204], the EC50 is reported as < 100 nM.
With `O=C(NC1CC1)N[C@H]1CC2=C(c3ccn(C(F)F)n3)[C@H](c3ccc(F)cc3Cl)N=C(c3nccs3)N2C1` [Example 205] the EC50 was < 100 nM.
Compound `O=C(N[C@H]1CC2=C(c3ccn(C(F)F)n3)[C@H](c3ccc(F)cc3Cl)N=C(c3nccs3)N2C1)N1CCCCC1` [Example 206] has an EC50 of 100 to 400 nM.
`O=C(N[C@H]1CC2=C(c3ccn(C(F)F)n3)[C@H](c3ccc(F)cc3Cl)N=C(c3nccs3)N2C1)N1CCOCC1` [Example 207] was tested, and the EC50 was < 100 nM.
For `O=C(N[C@H]1CC2=C(c3ccn(C(F)F)n3)[C@H](c3ccc(F)cc3Cl)N=C(c3nccs3)N2C1)N1CCC(O)CC1` [Example 208], the EC50 was < 100 nM.
`O=C(N[C@H]1CC2=C(c3ccn(C(F)F)n3)[C@H](c3ccc(F)cc3Cl)N=C(c3nccs3)N2C1)N1CCCC1` [Example 209] was tested, and the EC50 was < 100 nM.
In the case of `O=C(N[C@H]1CC2=C(c3ccn(C(F)F)n3)[C@H](c3ccc(F)cc3Cl)N=C(c3nccs3)N2C1)N1CCC1` [Example 210], the EC50 is reported as < 100 nM.
With `COC(=O)C1CCN(C(=O)N[C@H]2CC3=C(c4ccn(C(F)F)n4)[C@H](c4ccc(F)cc4Cl)N=C(c4nccs4)N3C2)CC1` [Example 211] the EC50 was 100 to 400 nM.
`O=C(O)C1CCN(C(=O)N[C@H]2CC3=C(c4ccn(C(F)F)n4)[C@H](c4ccc(F)cc4Cl)N=C(c4nccs4)N3C2)CC1` [Example 212] was tested, and the EC50 was 100 to 400 nM.
Work on `O=C(N[C@H]1CC2=C(c3ccn(C(F)F)n3)[C@H](c3ccc(F)cc3Cl)N=C(c3nccs3)N2C1)N1CCC(CO)CC1` [Example 216] yielded an EC50 of 100 to 400 nM.
For `O=C(NCc1ccccn1)N[C@H]1CC2=C(c3ccn(C(F)F)n3)[C@H](c3ccc(F)cc3Cl)N=C(c3nccs3)N2C1` [Example 217], the EC50 was > 400 nM.
With `O=C(NCC(O)c1ccccn1)N[C@H]1CC2=C(c3ccn(C(F)F)n3)[C@H](c3ccc(F)cc3Cl)N=C(c3nccs3)N2C1` (stereo partly shown) [Example 218] the EC50 was > 400 nM.
`O=C(N[C@H]1CC2=C(c3ccn(C(F)F)n3)[C@H](c3ccc(F)cc3Cl)N=C(c3nccs3)N2C1)N1CCS(=O)(=O)CC1` [Example 219] gave an EC50 of 100 to 400 nM.
For `CC(C)(C)OC(=O)N1CCN(C(=O)N[C@H]2CC3=C(c4ccn(C(F)F)n4)[C@H](c4ccc(F)cc4Cl)N=C(c4nccs4)N3C2)CC1` [Example 220], the EC50 was > 400 nM.
For `COC(=O)N1CCN(C(=O)N[C@H]2CC3=C(c4ccn(C(F)F)n4)[C@H](c4ccc(F)cc4Cl)N=C(c4nccs4)N3C2)CC1` [Example 221], the EC50 was 100 to 400 nM.
Compound `CS(=O)(=O)N1CCN(C(=O)N[C@H]2CC3=C(c4ccn(C(F)F)n4)[C@H](c4ccc(F)cc4Cl)N=C(c4nccs4)N3C2)CC1` [Example 222] has an EC50 of 100 to 400 nM.
`O=C(N[C@H]1CC2=C(c3ccn(C(F)F)n3)[C@H](c3ccc(F)cc3Cl)N=C(c3nccs3)N2C1)N1CCC[C@@H](O)C1` [Example 223] was tested, and the EC50 was 100 to 400 nM.
In the case of `O=C(N[C@H]1CC2=C(c3ccn(C(F)F)n3)[C@H](c3ccc(F)cc3Cl)N=C(c3nccs3)N2C1)N1CC[C@H](O)C1` [Example 224], the EC50 is reported as < 100 nM.
For `O=C(N[C@H]1CC2=C(c3ccn(C(F)F)n3)[C@H](c3ccc(F)cc3Cl)N=C(c3nccs3)N2C1)N1CC[C@@H](O)C1` [Example 225], the EC50 was < 100 nM.
In the case of `O=C(N[C@H]1CC2=C(c3ccn(C(F)F)n3)[C@H](c3ccc(F)cc3Cl)N=C(c3nccs3)N2C1)N1C[C@@H](O)[C@@H](O)C1` [Example 226], the EC50 is reported as 100 to 400 nM.
In the case of `O=C(N[C@H]1CC2=C(c3ccn(C(F)F)n3)[C@H](c3ccc(F)cc3Cl)N=C(c3nccs3)N2C1)c1cccnc1` [Example 227], the EC50 is reported as < 100 nM.
For `O=C(N[C@H]1CC2=C(c3ccn(C(F)F)n3)[C@H](c3ccc(F)cc3Cl)N=C(c3nccs3)N2C1)N1CCN(S(=O)(=O)c2ccccc2)CC1` [Example 228], the EC50 was > 400 nM.
For `O=C(N[C@H]1CC2=C(c3ccn(C(F)F)n3)[C@H](c3ccc(F)cc3Cl)N=C(c3nccs3)N2C1)N1CCC[C@H](O)C1` [Example 229], the EC50 was 100 to 400 nM.
With `O=C(N[C@H]1CC2=C(c3ccn(C(F)F)n3)[C@H](c3ccc(F)cc3Cl)N=C(c3nccs3)N2C1)N1C[C@H](O)[C@@H](O)C1` [Example 230] the EC50 was 100 to 400 nM.
`O=C(N[C@H]1CC2=C(c3ccn(C(F)F)n3)[C@H](c3ccc(F)cc3Cl)N=C(c3nccs3)N2C1)c1ccncc1` [Example 231] was tested, and the EC50 was < 100 nM.
`O=C(N[C@H]1CC2=C(c3ccn(C(F)F)n3)[C@H](c3ccc(F)cc3Cl)N=C(c3nccs3)N2C1)c1ncccn1` [Example 232] was tested, and the EC50 was < 100 nM.
For `O=C(N[C@H]1CC2=C(c3ccn(C(F)F)n3)[C@H](c3ccc(F)cc3Cl)N=C(c3nccs3)N2C1)c1cnccn1` [Example 233], the EC50 was < 100 nM.
In the case of `O=C(N[C@H]1CC2=C(c3ccn(C(F)F)n3)[C@H](c3ccc(F)cc3Cl)N=C(c3nccs3)N2C1)c1ncc[nH]1` [Example 234], the EC50 is reported as < 100 nM.
With `O=C(N[C@H]1CC2=C(c3ccn(C(F)F)n3)[C@H](c3ccc(F)cc3Cl)N=C(c3nccs3)N2C1)C1CC1` [Example 236] the EC50 was < 100 nM.
With `O=C(N[C@H]1CC2=C(c3ccn(C(F)F)n3)[C@H](c3ccc(F)cc3Cl)N=C(c3nccs3)N2C1)C1CCC1` [Example 237] the EC50 was 100 to 400 nM.
`O=C(N[C@H]1CC2=C(c3ccn(C(F)F)n3)[C@H](c3ccc(F)cc3Cl)N=C(c3nccs3)N2C1)C1CCCC1` [Example 238] gave an EC50 of 100 to 400 nM.
In the case of `O=C(N[C@H]1CC2=C(c3ccn(C(F)F)n3)[C@H](c3ccc(F)cc3Cl)N=C(c3nccs3)N2C1)C1CCCCC1` [Example 239], the EC50 is reported as 100 to 400 nM.
With `O=S(=O)(N[C@H]1CC2=C(c3ccn(C(F)F)n3)[C@H](c3ccc(F)cc3Cl)N=C(c3nccs3)N2C1)C1CCCCC1` [Example 240] the EC50 was < 100 nM.
With `O=C(N[C@H]1CC2=C(c3ccn(C(F)F)n3)[C@H](c3ccc(F)cc3Cl)N=C(c3nccs3)N2C1)N1CCC(O)(CO)CC1` [Example 241] the EC50 was 100 to 400 nM.
`O=C(N[C@H]1CC2=C(c3ccn(C(F)F)n3)[C@H](c3ccc(F)cc3Cl)N=C(c3nccs3)N2C1)N1CCC(O)(c2ccccc2)CC1` [Example 242] gave an EC50 of 100 to 400 nM.
For `O=C(N[C@H]1CC2=C(c3ccn(C(F)F)n3)[C@H](c3ccc(F)cc3Cl)N=C(c3nccs3)N2C1)N1CCC(O)(c2ccccn2)CC1` [Example 243], the EC50 was 100 to 400 nM.
`O=C(N[C@H]1CC2=C(c3ccn(C(F)F)n3)[C@H](c3ccc(F)cc3Cl)N=C(c3nccs3)N2C1)N1CCC(O)(c2nccs2)CC1` [Example 244] was tested, and the EC50 was 100 to 400 nM.
`O=C(N[C@H]1CC2=C(c3ccn(C(F)F)n3)[C@H](c3ccc(F)cc3Cl)N=C(c3nccs3)N2C1)N1CCC(O)(c2ncco2)CC1` [Example 245] gave an EC50 of 100 to 400 nM.
`O=C(N[C@H]1CC2=C(c3ccn(C(F)F)n3)[C@H](c3ccc(F)cc3Cl)N=C(c3nccs3)N2C1)N1CCC(O)(c2ncc(C3CC3)s2)CC1` [Example 246] gave an EC50 of 100 to 400 nM.
In the case of `O=C(N[C@H]1CC2=C(c3ccn(C(F)F)n3)[C@H](c3ccc(F)cc3Cl)N=C(c3nccs3)N2C1)N1CCC(O)(c2ncc[nH]2)CC1` [Example 247], the EC50 is reported as > 400 nM.
With `O=C(N[C@H]1CC2=C(c3ccn(C(F)F)n3)[C@H](c3ccc(F)cc3Cl)N=C(c3nccs3)N2C1)c1cccc(C2CC2)n1` [Example 248] the EC50 was > 400 nM.
`O=C(N[C@H]1CC2=C(c3ccn(C(F)F)n3)[C@H](c3ccc(F)cc3Cl)N=C(c3nccs3)N2C1)C1CCC(O)CC1` (stereo partly shown) [Example 249] gave an EC50 of 100 to 400 nM.
Compound `O=C(N[C@H]1CC2=C(c3ccn(C(F)F)n3)[C@H](c3ccc(F)cc3Cl)N=C(c3nccs3)N2C1)C1CC(O)C1` (stereo partly shown) [Example 250] has an EC50 of 100 to 400 nM.
With `O=C(N[C@H]1CC2=C(c3ccn(C(F)F)n3)[C@H](c3ccc(F)cc3Cl)N=C(c3nccs3)N2C1)OC1CCCCC1` [Example 251] the EC50 was < 100 nM.
With `O=C(N[C@H]1CC2=C(c3ccn(C(F)F)n3)[C@H](c3ccc(F)cc3Cl)N=C(c3nccs3)N2C1)OC1CCCC1` [Example 252] the EC50 was > 400 nM.
With `O=C(N[C@H]1CC2=C(c3ccn(C(F)F)n3)[C@H](c3ccc(F)cc3Cl)N=C(c3nccs3)N2C1)OC1CCC1` [Example 253] the EC50 was < 100 nM.
In the case of `O=C(N[C@H]1CC2=C(c3ccn(C(F)F)n3)[C@H](c3ccc(F)cc3Cl)N=C(c3nccs3)N2C1)O[C@H]1CC[C@H](O)CC1` [Example 254], the EC50 is reported as < 100 nM.
With `O=C(N[C@H]1CC2=C(c3ccn(C(F)F)n3)[C@H](c3ccc(F)cc3Cl)N=C(c3nccs3)N2C1)O[C@H]1C[C@H](O)C1` [Example 255] the EC50 was 100 to 400 nM.
In the case of `O=S(=O)(N[C@H]1CC2=C(c3ccn(C(F)F)n3)[C@H](c3ccc(F)cc3Cl)N=C(c3nccs3)N2C1)N1CCC(O)(c2cnc(C3CC3)s2)CC1` [Example 262], the EC50 is reported as < 100 nM.
With `O=C(N[C@H]1CC2=C(c3ccn(C(F)F)n3)[C@H](c3ccc(F)cc3Cl)N=C(c3nccs3)N2C1)c1ncc(-c2ccccn2)s1` [Example 263] the EC50 was 100 to 400 nM.
For `C#CC1(O)CCN(S(=O)(=O)N[C@H]2CC3=C(c4ccn(C(F)F)n4)[C@H](c4ccc(F)cc4Cl)N=C(c4cccs4)N3C2)CC1` [Example 265], the EC50 was < 100 nM.
In the case of `COCCN(C)S(=O)(=O)N(C)[C@H]1CC2=C(c3ccn(C(F)F)n3)[C@H](c3ccc(F)cc3Cl)N=C(c3nccs3)N2C1` [Example 268], the EC50 is reported as < 100 nM.
For `O=S(=O)(N[C@H]1CC2=C(c3ccn(C(F)F)n3)[C@H](c3ccc(F)cc3Cl)N=C(c3nccs3)N2C1)N1CC[C@H](F)C1` [Example 272], the EC50 was < 100 nM.
With `O=S(=O)(N[C@H]1CC2=C(c3ccn(C(F)F)n3)[C@H](c3ccc(F)cc3Cl)N=C(c3nccs3)N2C1)N1CCC(F)(F)CC1` [Example 277] the EC50 was < 100 nM.
For `O=S(=O)(N[C@H]1CC2=C(c3ccn(C(F)F)n3)[C@H](c3ccc(F)cc3Cl)N=C(c3nccs3)N2C1)N1CCCC(F)(F)C1` [Example 278], the EC50 was < 100 nM.
For `CC(=O)OCCCCS(=O)(=O)N[C@H]1CC2=C(c3ccn(C(F)F)n3)[C@H](c3ccc(F)cc3Cl)N=C(c3nccs3)N2C1` [Example 279], the EC50 was < 100 nM.
`O=S(=O)(N[C@H]1CC2=C(c3ccn(C(F)F)n3)[C@H](c3ccc(F)cc3Cl)N=C(c3nccs3)N2C1)N1CCC[C@H]1C(F)(F)F` [Example 281] was tested, and the EC50 was < 100 nM.
With `O=S(=O)(N[C@H]1CC2=C(c3ccn(C(F)F)n3)[C@H](c3ccc(F)cc3Cl)N=C(c3nccs3)N2C1)N1CCCC1c1cccnc1` (stereo partly shown) [Example 283] the EC50 was 100 to 400 nM.
